Results taken from US8952014B2, “Pyrimidine derivatives which are CGRP—antagonists” (Boehringer Ingelheim International GmbH, priority 2008, dated 2015).

Molecular target: T1, human CGRP receptor (Homo sapiens, UniProt O60894+Q16602)
T1 construct: SK-N-MC membranes (˜20 μg protein) are incubated for 180 minutes at ambient temperature; endogenous in cells; host or cells: SK-N-MC cells (membranes)
Experiment: Binding studies with SK-N-MC cells (125I-CGRP displacement from membranes)
Settings: 50 pM 125I-iodotyrosyl-CGRP, 180 min, ambient temperature
Procedure: A. Binding Studies with SK-N-MC Cells (Expressing the Human CGRP Receptor)
SK-N-MC membranes (˜20 μg protein) are incubated for 180 minutes at ambient temperature with 50 pM ^125I-iodotyrosyl-Calcitonin-Gene-Related Peptide and increasing concentrations of the test substances in a total volume of 250 μl (assay buffer: 10 mM tris, 50 mM NaCl, 5 mM MgCl2, 1 mM EDTA, pH=7.4). The incubation is ended by rapid filtration through GF/B-glass fibre filters treated with polyethyleneimine (0.1%) using a cell harvester. The protein-bound radioactivity is measured using a gamma counter. Non-specific binding is defined as the bound radioactivity after the presence of 1 μM BIBN4096BS during incubation.
The concentration binding curves are analysed using computer-aided non-linear curve fitting.

T1 sequence (Q16602 23-461): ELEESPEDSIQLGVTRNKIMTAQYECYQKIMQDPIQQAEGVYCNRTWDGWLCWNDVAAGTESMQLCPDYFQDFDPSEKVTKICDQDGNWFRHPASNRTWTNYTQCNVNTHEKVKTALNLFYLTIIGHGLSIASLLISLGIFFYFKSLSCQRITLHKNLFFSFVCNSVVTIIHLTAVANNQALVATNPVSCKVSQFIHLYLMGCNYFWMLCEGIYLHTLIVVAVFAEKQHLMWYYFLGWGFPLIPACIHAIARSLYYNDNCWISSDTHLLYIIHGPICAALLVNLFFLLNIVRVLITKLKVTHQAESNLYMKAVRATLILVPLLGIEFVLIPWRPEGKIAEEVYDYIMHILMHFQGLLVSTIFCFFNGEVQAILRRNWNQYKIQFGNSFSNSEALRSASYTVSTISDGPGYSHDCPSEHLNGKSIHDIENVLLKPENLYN
T1 sequence (O60894 27-148): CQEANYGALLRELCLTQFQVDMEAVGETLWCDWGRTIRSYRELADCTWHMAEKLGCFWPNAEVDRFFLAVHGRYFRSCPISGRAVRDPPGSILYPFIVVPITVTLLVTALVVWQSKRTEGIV

SMILES	Ki [nM]
COc1ccc2c(c1)CCN(C1CCN(c3cc(Oc4cc(C)nc5ccccc45)ncn3)CC1)C(=O)N2 [(31)]	129
Cc1nc2cc(Nc3cc(N4CCC(n5c(=O)[nH]c6ncccc65)CC4)ncn3)cc(C)c2[nH]1 [(13)]	68
Cc1cc(Oc2cc(N3CCC4(CC3)OC(=O)Nc3ncccc34)ncn2)cc2nc(C3CCOC3)[nH]c12 (centres unmarked) [(58)]	2
Cc1nc2cc(Nc3cc(N4CCC(n5c(=O)[nH]c6ncccc65)CC4)ncn3)cc(C)c2o1 [(20)]	481
Cc1cc(Oc2cc(N3CCC(n4c(=O)[nH]c5ncccc54)CC3)ncn2)cc2[nH]c([C@@H]3CCCO3)nc12 [(52)]	27
COc1ccc2c(c1)CCN(C1CCN(c3cc(Oc4cc(C)c5nc(C6CCOC6)[nH]c5c4)ncn3)CC1)C(=O)N2 (centres unmarked) [(73)]	3
COc1ccc2c(c1)CCN(C1CCN(c3cc(Nc4cc(C)c(O)c(C)c4)ncn3)CC1)C(=O)N2 [(17)]	198
Cc1cc(Nc2cc(Nc3ccc4c(c3)CC3(C4)C(=O)Nc4ncccc43)ncn2)cc2oc(=O)[nH]c12 (centres unmarked) [(18)]	227
COc1ccc2c(c1)CCN(C1CCN(c3cc(Oc4cc(C)c5nc([C@@H]6CCCO6)[nH]c5c4)ncn3)CC1)C(=O)N2 [(53)]	5
COc1ccc2c(c1)CCN(C1CCN(c3cc(Oc4cc(C)c5nc(C)[nH]c5c4)ncn3)CC1)C(=O)N2 [(29)]	3
COc1ccc2c(c1)CCN(C1CCN(c3cc(Oc4cc(C)c5[nH]c(=O)oc5c4)ncn3)CC1)C(=O)N2 [(1)]	2
COc1ccc2c(c1)CCN(C1CCN(c3cc(Nc4cc(C)c5oc(C)nc5c4)ncn3)CC1)C(=O)N2 [(16)]	187
Cc1cc(Oc2cc(N3CCC4(CC3)OC(=O)Nc3ncccc34)ncn2)cc2cn[nH]c12 [(68)]	4
COc1ccc2c(c1)CCN(C1CCN(c3cc(Oc4ccc5[nH]c(C)nc5c4)ncn3)CC1)C(=O)N2 [(55)]	89
COc1ccc2c(c1)CCN(C1CCN(c3cc(Oc4ccc(NC(C)=O)c(C)c4)ncn3)CC1)C(=O)N2 [(48)]	96
Cc1nc2cc(Nc3cc(Nc4ccc5c(c4)CC4(C5)C(=O)Nc5ncccc54)ncn3)cc(C)c2[nH]1 (centres unmarked) [(19)]	241
COc1ccc2c(c1)CCN(C1CCN(c3cc(Oc4cc(C)nc(C)c4)ncn3)CC1)C(=O)N2 [(36)]	61
COc1ccc2c(c1)CCN(C1CCN(c3cc(Oc4cc(C)c5[nH]c(=O)oc5c4)nc(N)n3)CC1)C(=O)N2 [(37)]	65
Cc1nc(Oc2cc(C)c3[nH]c(=O)oc3c2)cc(N2CCC3(CC2)C(=O)Nc2ncccc23)n1 [(77)]	21
Cc1nc(Oc2cc(C)c3[nH]c(=O)oc3c2)cc(N2CCC3(CC2)CC(=O)Nc2ncccc23)n1 [(76)]	26
Cc1cc(Oc2cc(N3CCC4(CC3)OC(=O)Nc3ncccc34)ncn2)cc2sc(=O)[nH]c12 [(64)]	2
Cc1cc(Nc2cc(N3CCC(n4c(=O)[nH]c5ncccc54)CC3)ncn2)cc2oc(=O)[nH]c12 [(6)]	4
COc1ccc2c(c1)CCN(C1CCN(c3cc(Oc4cc(C)c5nc(C6CC6)[nH]c5c4)ncn3)CC1)C(=O)N2 [(42)]	2
COc1nc2cc(Oc3cc(N4CCC5(CC4)OC(=O)Nc4ncccc45)ncn3)cc(C)c2[nH]1 [(67)]	6

SMILES	Ki [nM]
Cc1cc(Oc2cc(N3CCC4(CC3)OC(=O)Nc3ncccc34)ncn2)cc2nc([C@H]3CCOC3)[nH]c12 [(60)]	2
COc1ccc2c(c1)CCN(C1CCN(c3cc(Sc4cc(C)c5[nH]c(=O)oc5c4)ncn3)CC1)C(=O)N2 [(21)]	2
COc1nc(Oc2cc(C)c3[nH]c(=O)oc3c2)cc(N2CCC3(CC2)OC(=O)Nc2ncccc23)n1 [(41)]	3
COc1ccc2c(c1)CCN(C1CCN(c3cc(Oc4cnc5ccccc5n4)ncn3)CC1)C(=O)N2 [(27)]	207
COc1ccc2c(c1)CCN(C1CCN(c3cc(S(=O)(=O)c4cc(C)c5[nH]c(=O)oc5c4)ncn3)CC1)C(=O)N2 [(26)]	45
Cc1cc(Oc2cc(N3CCC(n4c(=O)[nH]c5ncccc54)CC3)ncn2)cc2[nH]c(C3CC3)nc12 [(43)]	6
Cc1cc(Oc2cc(N3CCC4(CC3)OC(=O)Nc3ncccc34)ncn2)cc2c1NC(=O)CO2 [(69)]	4
Cc1cc(Oc2cc(N3CCC4(CC3)OC(=O)Nc3ncccc34)ncn2)cc2oc(=O)[nH]c12 [(23)]	1
Cc1cc(Oc2cc(N3CCC(n4c(=O)[nH]c5ncccc54)CC3)ncn2)cc2oc(=O)n(C)c12 [(2)]	20
Cc1cc(Oc2cc(N3CCC4(CC3)OC(=O)Nc3ncccc34)ncn2)cc2nc(C3CCOCC3)[nH]c12 [(65)]	3
O=C1Nc2ncccc2C2(CCN(c3cc(Oc4cc(Cl)c5[nH]c(C6CCOCC6)nc5c4)ncn3)CC2)O1 [(62)]	2
COc1ccc2c(c1)CCN(C1CCN(c3cc([S+]([O-])c4cc(C)c5[nH]c(=O)oc5c4)ncn3)CC1)C(=O)N2 (centres unmarked) [(25)]	18
COc1ccc2c(c1)CCN(C1CCN(c3cc(Oc4cc(C)c5nc(CC(F)(F)F)[nH]c5c4)ncn3)CC1)C(=O)N2 [(35)]	16
Cc1cc(Nc2cc(N3CCC(n4c(=O)[nH]c5ncccc54)CC3)ncn2)cc2oc(=O)n(C)c12 [(14)]	81
COc1ccc2c(c1)CCN(C1CCN(c3nc(Cl)cc(Oc4cc(C)c5[nH]c(=O)oc5c4)n3)CC1)C(=O)N2 [(46)]	194
Cc1cc(Oc2cc(N3CCC4(CC3)OC(=O)Nc3ncccc34)ncn2)cc2[nH]c([C@H]3CCCO3)nc12 [(70)]	5
Cc1nc2cc(Nc3cc(N4CCC(n5c(=O)[nH]c6c7ccccc7ncc65)CC4)ncn3)cc(C)c2[nH]1 [(9)]	37
COc1ccc2c(c1)CCN(C1CCN(c3cc(Oc4cc(C)c5nc(CC#N)[nH]c5c4)ncn3)CC1)C(=O)N2 [(28)]	4
Cc1cc(Oc2cc(N3CCC4(CC3)OC(=O)Nc3ncccc34)ncn2)cc2nc([C@@H]3CCOC3)[nH]c12 [(59)]	2
Cc1nc(Nc2cc(C)c3[nH]c(=O)oc3c2)cc(N2CCC(n3c(=O)[nH]c4ncccc43)CC2)n1 [(24)]	3
COc1ccc2c(c1)CCN(C1CCN(c3cc(Oc4ccc5[nH]c(=O)oc5c4)ncn3)CC1)C(=O)N2 [(47)]	47
COc1ccc2c(c1)CCN(C1CCN(c3cc(Nc4cc(C)c5[nH]ncc5c4)ncn3)CC1)C(=O)N2 [(11)]	54
O=C1Nc2ncccc2C2(CCN(c3cc(Oc4cc(Cl)c5[nH]c(C6CCOC6)nc5c4)ncn3)CC2)O1 (centres unmarked) [(61)]	2
COc1ccc2c(c1)CCN(C1CCN(c3cc(Nc4cc(C)c5c(c4)nc(C)n5C)ncn3)CC1)C(=O)N2 [(12)]	61

SMILES	Ki [nM]
Cc1ccc(Oc2cc(N3CCC(n4c(=O)[nH]c5ncccc54)CC3)ncn2)cc1C [(4)]	175
COc1ccc2c(c1)CCN(C1CCN(c3cc(Oc4ccc5[nH]c(C)nc5c4Cl)ncn3)CC1)C(=O)N2 [(56)]	29
COc1ccc2c(c1)CCN(C1CCN(c3cc(Oc4cc(C(F)(F)F)c5nc(C)[nH]c5c4)ncn3)CC1)C(=O)N2 [(79)]	11
COCc1nc2cc(Oc3cc(N4CCC5(CC4)OC(=O)Nc4ncccc45)ncn3)cc(C)c2[nH]1 [(39)]	7
Cc1nc2c(C)cc(Oc3cc(N4CCC(n5c(=O)[nH]c6ncccc65)CC4)ncn3)cc2[nH]1 [(34)]	18
COc1ccc2c(c1)CCN(C1CCN(c3cc(Nc4cc(C)c5[nH]c(=O)oc5c4)ncn3)CC1)C(=O)N2 [(7)]	5
COc1ccc2c(c1)CCN(C1CCN(c3cc(Oc4cc(C)c5[nH]c(=O)oc5c4)nc(C4CC4)n3)CC1)C(=O)N2 [(45)]	81
COc1ccc2c(c1)CCN(C1CCN(c3cc(Oc4cc(C)c5c(c4)oc(=O)n5C)ncn3)CC1)C(=O)N2 [(3)]	23
COc1ccc2c(c1)CCN(C1CCN(c3cc(Oc4cc(C)c5[nH]c(=O)sc5c4)ncn3)CC1)C(=O)N2 [(72)]	3
COc1ccc2c(c1)CCN(C1CCN(c3cc(Oc4cc(C)c5nc[nH]c5c4)ncn3)CC1)C(=O)N2 [(32)]	15
Cc1cc(Oc2cc(N3CCC4(CC3)OC(=O)Nc3ncccc34)ncn2)cc2[nH]c([C@@H]3CCCO3)nc12 [(54)]	2
COCCc1nc2c(C)cc(Oc3cc(N4CCC5(CC4)OC(=O)Nc4ncccc45)ncn3)cc2[nH]1 [(66)]	6
Cc1nc(Oc2cc(C)c3[nH]c(=O)oc3c2)cc(N2CCC3(CC2)OC(=O)Nc2ncccc23)n1 [(71)]	8
Cc1cc(Oc2cc(N3CCC(n4c(=O)[nH]c5ncccc54)CC3)ncn2)cc2oc(=O)[nH]c12 [(5)]	3
COc1ccc2c(c1)CCN(C1CCN(c3cc(Oc4cc(C)c5nc(CC6CC6)[nH]c5c4)ncn3)CC1)C(=O)N2 [(33)]	8
COc1ccc2c(c1)CCN(C1CCN(c3cc(N(C(C)=O)c4cc(C)c5c(c4)oc(=O)n5C)ncn3)CC1)C(=O)N2 [(15)]	102
Cc1cc(Oc2cc(N3CCC4(CC3)OC(=O)Nc3ncccc34)ncn2)cc2[nH]c(C3CC3)nc12 [(44)]	1
COc1ccc2c(c1)CCN(C1CCN(c3cc(Oc4ccc(N)c(C)c4)ncn3)CC1)C(=O)N2 [(49)]	154
COc1ccc2c(c1)CCN(C1CCN(c3cc(Nc4cc(C)c5c(c4)oc(=O)n5C)ncn3)CC1)C(=O)N2 [(10)]	49
Cc1cc(Oc2cc(N3CCC4(CC3)OC(=O)Nc3ncccc34)nc(C(F)(F)F)n2)cc2oc(=O)[nH]c12 [(74)]	29
Cc1cc(Oc2cc(N3CCC4(CC3)OC(=O)Nc3ncccc34)ncn2)cc2nc(C(F)(F)F)[nH]c12 [(63)]	2
Cc1cc(Oc2cc(N3CCC4(CC3)OC(=O)Nc3ncccc34)ncc2C#N)cc2oc(=O)[nH]c12 [(75)]	23
COc1ccc2c(c1)CCN(C1CCN(c3cc(Oc4cc(C)c5[nH]c(=O)oc5c4)cc[n+]3[O-])CC1)C(=O)N2 [(80)]	11
